Measured values from paper PMC7039992, “The structural basis of fungal glucuronoyl esterase activity on natural substrates” (Nature Communications, 2020).
Several values for one entry are separate records, joined by “and”; a condition that tells them apart may be missing. Equal values may be shown once.

What was measured:
[1] = biological target: T1, dΔS270A CuGE (inactive truncated deglycosylated variant) (Cerrena unicolor, UniProt A0A0A7EQR3, S286A); assay: Microscale thermophoresis (MST, LabelFree) binding of soluble ligands to dΔS270A
T1 construct: truncated CuGE (residues G79-T458) corresponding to the catalytic domain only; His6 (C); TEV protease cleavage site (C); made in house; host or cells: Pichia pastoris X-33
Protocol: (§1) Binding affinities for the soluble ligands U^m4XX^-OH (O-UXXR, MEGAZYMES), MeGlcA (4-O-methyl-D-glucuronic acid, MM46686, Carbosynth, Crompton UK), and MeMeGlcA (4-O-methyl-D-glucopyranosyluronate, purchased from Institute of Chemistry, Slovak Academy of Sciences, Bratislava, Slovakia) were measured by MST. The protein stocks, dΔS207A and ΔWT, were adjusted to 200 nM with 100 mM sodium acetate buffer pH 5 supplemented with 0.1% Pluronic F-127. Ligand stocks (100 mM U^m4XX^-OH, 43 mM MeGlcA and 250 mM MeMeGlcA) were prepared in 100 mM sodium acetate buffer pH 5, and for each ligand a series of 16 1:1 dilutions was prepared using the same buffer. For the measurement, each ligand dilution was mixed with one volume of protein, which led to a final protein concentration of 100 nM and final ligand concentrations in the mM to nM range. After 10 min incubation followed by centrifugation at 10,000 × g for 10 min, the samples were loaded into Monolith NT.LabelFree zero-background capillaries (NanoTemper Technologies). The MST experiment was performed with a Monolith NT.LabelFree instrument (NanoTemper Technologies) at 25 °C using 30% LED power and medium MST power. […] Final ligand concentration ranges used in the analysis of the MST signal were: U^m4XX^-OH 25 mM to 1.53 μM, MeGlcA 10.8 mM to 656 nM and MeMeGlcA 15.6 mM to 3.81 μM. For each ligand-binding curve, data from at least three independently pipetted measurements were included in the analysis with the MO. Affinity Analysis software (version 2.3, NanoTemper Technologies) using the signal from an MST-on time of 5 s.

[2] = tested on: CuGE catalytic domain crystals; assay: Crystal soaking with ligands; format: binding, Cerrena unicolor; settings: concentrations up to 0.5 M
Protocol: The deglycosylated CuGE variants dWT and dΔS207A were both screened for crystallization. However, all crystals obtained contain the catalytic domain only, as crystals formed in experiments with the full-length enzyme (dWT) turned out to be a proteolytic fragment lacking the CBM1 and linker region (Δ*dWT). […] Crystallization and ligand soak conditions are summarized in Supplementary Table 1. The vast majority of crystals formed at 4 °C and with high molecular weight polymers (SOKALAN CP7, PEG 10,000 or PEG 8000) as precipitants. Crystals were cryoprotected by brief soaks in either reservoir or ligand stock solutions supplemented with 26% glycerol and flash-frozen in liquid nitrogen. […] A refinement protocol using the maximum-likelihood target, real-space refinement, refinement of coordinates, individual isotropic temperature factors and translation-liberation-screw (TLS) refinement using TLS groups determined by the PHENIX software was applied. […]

[3] = biological target: T2, ΔWT CuGE (truncated, catalytic domain only) (Cerrena unicolor, UniProt A0A0A7EQR3); assay: Microscale thermophoresis (MST, LabelFree) binding of soluble ligands to ΔWT; settings: for Fnorm Average: MST
T2 construct: truncated CuGE (residues G79-T458) corresponding to the catalytic domain only; His6 (C); TEV protease cleavage site (C); made in house; host or cells: Pichia pastoris X-33
Protocol: as §1

[4] = Stability measurements: apparent thermal unfolding temperature (Ti) from intrinsic fluorescence, Tycho NT.6; format: physicochemical, Cerrena unicolor; settings: 20 mM sodium acetate buffer pH 5
Protocol: In order to evaluate the stability of the different CuGE variants apparent unfolding temperatures (Ti) were monitored based on changes in intrinsic fluorescence using a Tycho NT.6 instrument (NanoTemper Technologies). The measurements were made in 20 mM sodium acetate buffer pH 5, protein concentrations in the range 0.07–0.3 mg mL^−1.

**Q.** What does the source list for `CO[C@@H]([C@H](O)[C@@H](O)C=O)[C@H](O)C(=O)O` [MeGlcA, 4-O-methyl-D-glucuronic acid]?
**A.** dissociation constant, times higher compared to dΔS270A:U^m4XX^-OH ([1]; MST): ~ 10 times; Fnorm Average ([1]; MST, ligand Conc 6.56128e-7 M): 892.97; Fnorm Average ([1]; MST, ligand Conc 1.31226e-6 M): 893.37; Fnorm Average ([1]; MST, ligand Conc 2.62451e-6 M): 892.22; Fnorm Average ([1]; MST, ligand Conc 5.24902e-6 M): 893.19; Fnorm Average ([1]; MST, ligand Conc 1.0498e-5 M): 892.96; Fnorm Average ([1]; MST, ligand Conc 2.09961e-5 M): 892.61; Fnorm Average ([1]; MST, ligand Conc 4.19922e-5 M): 895.02; Fnorm Average ([1]; MST, ligand Conc 8.39844e-5 M): 893.94; Fnorm Average ([1]; MST, ligand Conc 0.000167969 M): 894.55; Fnorm Average ([1]; MST, ligand Conc 0.000335937 M): 893.65; Fnorm Average ([1]; MST, ligand Conc 0.000671875 M): 895.68; Fnorm Average ([1]; MST, ligand Conc 0.00134375 M): 895.81; Fnorm Average ([1]; MST, ligand Conc 0.0026875 M): 897.59; Fnorm Average ([1]; MST, ligand Conc 0.005375 M): 898.85; Fnorm Average ([1]; MST, ligand Conc 0.01075 M): 901.30

**Q.** With `COC(=O)[C@H]1OC(O)[C@H](O)[C@@H](O)[C@@H]1OC` (stereo partly drawn) [MeMeGlcA, methyl ester of 4-O-methyl-D-glucuronic acid] as the molecule, how does the Kd [1] read?
**A.** > 10 mM

**Q.** And the “Fnorm Average” value ([1]; MST, ligand Conc 3.8147e-6 M)?
**A.** 893.87

**Q.** What about the “Fnorm Average” value ([1]; MST, ligand Conc 7.62939e-6 M) of the same molecule?
**A.** 892.81

**Q.** What about the “Fnorm Average” value ([1]; MST, ligand Conc 1.52588e-5 M) of the same molecule?
**A.** 893.60

**Q.** And the “Fnorm Average” value ([1]; MST, ligand Conc 3.05176e-5 M)?
**A.** 893.00

**Q.** What about the “Fnorm Average” value ([1]; MST, ligand Conc 6.10352e-5 M) of the same molecule?
**A.** 891.24

**Q.** And the “Fnorm Average” value ([1]; MST, ligand Conc 0.00012207 M)?
**A.** 892.80

**Q.** And the “Fnorm Average” value ([1]; MST, ligand Conc 0.000244141 M)?
**A.** 892.27

**Q.** And the “Fnorm Average” value ([1]; MST, ligand Conc 0.000488281 M)?
**A.** 892.23

**Q.** What about the “Fnorm Average” value ([1]; MST, ligand Conc 0.000976562 M) of the same molecule?
**A.** 892.05

**Q.** What about the “Fnorm Average” value ([1]; MST, ligand Conc 0.00195312 M) of the same molecule?
**A.** 893.14

**Q.** What about the “Fnorm Average” value ([1]; MST, ligand Conc 0.00390625 M) of the same molecule?
**A.** 894.69

**Q.** What about the “Fnorm Average” value ([1]; MST, ligand Conc 0.0078125 M) of the same molecule?
**A.** 894.83

**Q.** And the “Fnorm Average” value ([1]; MST, ligand Conc 0.015625 M)?
**A.** 899.63

**Q.** What about the “complex formation on crystal soak” value [2] of the same molecule?
**A.** did not result in a complex

**Q.** With `CO[C@H]1[C@H](O)[C@@H](O)[C@@H](O[C@H]2[C@H](O[C@@H]3CO[C@@H](O[C@H](CO)[C@H](O)[C@@H](O)CO)[C@H](O)[C@H]3O)OC[C@@H](O)[C@@H]2O)O[C@@H]1C(=O)O` [U^m4XX^-OH, aldotetrauronic acid] as the molecule, how does the “Fnorm Average” value ([1]; MST, ligand Conc 1.52588e-6 M) read?
**A.** 893.61

**Q.** And the “Fnorm Average” value ([1]; MST, ligand Conc 3.05176e-6 M)?
**A.** 893.69

**Q.** And the “Fnorm Average” value ([1]; MST, ligand Conc 6.10352e-6 M)?
**A.** 893.20

**Q.** And the “Fnorm Average” value ([1]; MST, ligand Conc 1.2207e-5 M)?
**A.** 894.05

**Q.** What about the “Fnorm Average” value ([1]; MST, ligand Conc 2.44141e-5 M) of the same molecule?
**A.** 893.89

**Q.** What about the “Fnorm Average” value ([1]; MST, ligand Conc 4.88281e-5 M) of the same molecule?
**A.** 895.55

**Q.** What about the “Fnorm Average” value ([1]; MST, ligand Conc 9.76563e-5 M) of the same molecule?
**A.** 898.89

**Q.** What about the “Fnorm Average” value ([1]; MST, ligand Conc 0.000195313 M) of the same molecule?
**A.** 901.02

**Q.** What about the “Fnorm Average” value ([1]; MST, ligand Conc 0.000390625 M) of the same molecule?
**A.** 904.70

**Q.** What about the “Fnorm Average” value ([1]; MST, ligand Conc 0.00078125 M) of the same molecule?
**A.** 908.26

**Q.** And the “Fnorm Average” value ([1]; MST, ligand Conc 0.0015625 M)?
**A.** 908.91

**Q.** And the “Fnorm Average” value ([1]; MST, ligand Conc 0.003125 M)?
**A.** 910.47

**Q.** What about the “Fnorm Average” value ([1]; MST, ligand Conc 0.00625 M) of the same molecule?
**A.** 911.05

**Q.** And the “Fnorm Average” value ([1]; MST, ligand Conc 0.0125 M)?
**A.** 912.09

**Q.** What about the “Fnorm Average” value ([1]; MST, ligand Conc 0.025 M) of the same molecule?
**A.** 909.72

**Q.** And the Kd [3]?
**A.** 5 mM

**Q.** And the “Fnorm Average” value ([3]; ligand Conc 1.52588e-6 M)?
**A.** 893.29

**Q.** What about the “Fnorm Average” value ([3]; ligand Conc 3.05176e-6 M) of the same molecule?
**A.** 893.55

**Q.** And the “Fnorm Average” value ([3]; ligand Conc 6.10352e-6 M)?
**A.** 893.63

**Q.** And the “Fnorm Average” value ([3]; ligand Conc 1.2207e-5 M)?
**A.** 892.18

**Q.** And the “Fnorm Average” value ([3]; ligand Conc 2.44141e-5 M)?
**A.** 892.73

**Q.** And the “Fnorm Average” value ([3]; ligand Conc 4.88281e-5 M)?
**A.** 894.37

**Q.** What about the “Fnorm Average” value ([3]; ligand Conc 9.76563e-5 M) of the same molecule?
**A.** 893.73

**Q.** And the “Fnorm Average” value ([3]; ligand Conc 0.000195313 M)?
**A.** 893.94

**Q.** What about the “Fnorm Average” value ([3]; ligand Conc 0.000390625 M) of the same molecule?
**A.** 894.62

**Q.** What about the “Fnorm Average” value ([3]; ligand Conc 0.00078125 M) of the same molecule?
**A.** 893.24

**Q.** What about the “Fnorm Average” value ([3]; ligand Conc 0.0015625 M) of the same molecule?
**A.** 896.88

**Q.** What about the “Fnorm Average” value ([3]; ligand Conc 0.003125 M) of the same molecule?
**A.** 900.40

**Q.** And the “Fnorm Average” value ([3]; ligand Conc 0.00625 M)?
**A.** 905.36

**Q.** What about the “Fnorm Average” value ([3]; ligand Conc 0.0125 M) of the same molecule?
**A.** 907.85

**Q.** What about the “Fnorm Average” value ([3]; ligand Conc 0.025 M) of the same molecule?
**A.** 907.66

B1: dWT: enzymatically deglycosylated full-length WT CuGE (protein)
chain: QASAPQWGQCGGIGWTGPTACPSGWACQQLNAYYSQCLQGAAPAPARTTAAPPPPPATTAAPPPPTTSAPTGSSPVAGACGAIASTVPNYNNAKLPDPFTFANGTALRTKADWSCRRAEISALIQNYEAGTLPPKPPVVTASFSKSGNTGTLAITAGLSNSQTIKFSPTISYPSGTPPANGWPLIIAYEGGSIPIPAGVATLTYSNSDMAQQNSASSRGQGLFYQLYGSTHSASAMTAWVWGVSRIIDALEMTPTAQINTQRIGVTGCSRDGKGALMAGAFEERIALTIPQESGSGGDACWRLSKYEIDNGNQVQDAVEIVGENVWFSTNFNNYVQKLPTVPEDHHLLAAMVAPRAMISFENTDYLWLSPMSSFGCMTAAHTVWQGLGIADSHGFAQVGGHAHCAWPSSLTPQLNAFINRFLLDQSATTNVFTTNNQFGKVQWNAANWITWTTPTLT
modifications: N-glycosylation at N104 trimmed with Endo H; O-glycosylation in the linker region trimmed with alpha-1-2,3,6 mannosidase; left off: c-myc epitope, C-terminal, state not stated | His6, C-terminal, stat
notes: enzymatically deglycosylated full-length WT CuGE
**Q.** Which “Ti, single measurements” value ([4]; individual replicates) does the source give for B1 here?
**A.** 75.9 °C and 75.7 °C and 75.8 °C

**Q.** And the “Ti, apparent thermal unfolding temperature (mean)” value ([4]; protein 0.07–0.3 mg mL^−1, intrinsic fluorescence)?
**A.** 75.8 °C
